From ChEMBL document CHEMBL3885861, “Open TG-GATES”

Species: Rattus norvegicus
Test: Open TG-GATES - Regimen: Single
Type: toxicity, organism-based, Sprague-Dawley
Parameters: regimen Single, gender Male, age 6 weeks
Conditions: in vivo, po, route gavage; for APTT / Bas / Eos / Fbg / Hb / Ht / Lym / MCH / MCHC / MCV / Mono / Neu / PT / Plat / RBC / Ret / WBC: tissue Blood; for KIDNEY_L / KIDNEY_R / KIDNEY_TOTAL: tissue Kidney; for LIVER: tissue Liver; for A/G / ALP / ALT / AST / BUN / CRE / Ca / Cl / DBIL / GLC / IP / K / LDH / Na / PL / RALB / TBIL / TC / TG / TP / gamma-GTP: tissue Plasma
[1] = 300 mg/kg, 3 h, dose level Middle
[2] = 300 mg/kg, 6 h, dose level Middle
[3] = 300 mg/kg, 9 h, dose level Middle
[4] = 300 mg/kg, 24 h, dose level Middle
[5] = 1000 mg/kg, 3 h, dose level High
[6] = 1000 mg/kg, 6 h, dose level High
[7] = 1000 mg/kg, 9 h, dose level High
[8] = 1000 mg/kg, 24 h, dose level High

CC(C)(S)[C@@H](N)C(=O)O [PENICILLAMINE]
TERMINAL_BW [1]: 203.8 g
APTT [1]: 16.5 s
Bas [1]: 0%
Eos [1]: 0.8%
Fbg [1]: 315.2 mg/dL
Hb [1]: 13.2 g/dL
Ht [1]: 40.7%
Lym [1]: 75.4%
MCH [1]: 20.9 pg
MCHC [1]: 32.3%
MCV [1]: 64.7 fL
Mono [1]: 3.8%
Neu [1]: 19.4%
PT [1]: 15.1 s
Plat [1]: 123.1 x10_4/uL
RBC [1]: 629.8 x10_4/ul
Ret [1]: 9%
WBC [1]: 73.3 x10_2/uL
KIDNEY_L [1]: 0.8 g
KIDNEY_R [1]: 0.9 g
KIDNEY_TOTAL [1]: 1.7 g
LIVER [1]: 8.6 g
A/G [1]: 0.9
ALP [1]: 1102.4 IU/L
ALT [1]: 43.6 IU/L
AST [1]: 73.4 IU/L
BUN [1]: 8.4 mg/dL
CRE [1]: 0.2 mg/dL
Ca [1]: 10.9 mg/dL
Cl [1]: 106.2 meq/L
DBIL [1]: 0.01 mg/dL
GLC [1]: 175 mg/dL
IP [1]: 8.4 mg/dL
K [1]: 4.3 meq/L
LDH [1]: 57.4 IU/L
Na [1]: 142.6 meq/L
PL [1]: 139.2 mg/dL
RALB [1]: 2.5 g/dL
TBIL [1]: 0.034 mg/dL
TC [1]: 73.8 mg/dL
TG [1]: 87.8 mg/dL
TP [1]: 5.3 g/dL
gamma-GTP [1]: 1 IU/L
TERMINAL_BW [2]: 200.3 g
APTT [2]: 14.8 s
Bas [2]: 0%
Eos [2]: 0.8%
Fbg [2]: 313.6 mg/dL
Hb [2]: 13.4 g/dL
Ht [2]: 41.5%
Lym [2]: 74.6%
MCH [2]: 20.4 pg
MCHC [2]: 32.3%
MCV [2]: 63.4 fL
Mono [2]: 3%
Neu [2]: 20.6%
PT [2]: 14.6 s
Plat [2]: 121.5 x10_4/uL
RBC [2]: 655.4 x10_4/ul
Ret [2]: 8.7%
WBC [2]: 87.9 x10_2/uL
KIDNEY_L [2]: 0.9 g
KIDNEY_R [2]: 0.9 g
KIDNEY_TOTAL [2]: 1.8 g
LIVER [2]: 8.2 g
A/G [2]: 0.9
ALP [2]: 1066.8 IU/L
ALT [2]: 36.6 IU/L
AST [2]: 72 IU/L
BUN [2]: 8.2 mg/dL
CRE [2]: 0.2 mg/dL
Ca [2]: 10.7 mg/dL
Cl [2]: 106.2 meq/L
DBIL [2]: 0.012 mg/dL
GLC [2]: 182.8 mg/dL
IP [2]: 9.5 mg/dL
K [2]: 4.4 meq/L
LDH [2]: 60.8 IU/L
Na [2]: 142.8 meq/L
PL [2]: 139.6 mg/dL
RALB [2]: 2.5 g/dL
TBIL [2]: 0.038 mg/dL
TC [2]: 79.2 mg/dL
TG [2]: 47.4 mg/dL
TP [2]: 5.2 g/dL
gamma-GTP [2]: 1 IU/L
TERMINAL_BW [3]: 198.7 g
APTT [3]: 16.2 s
Bas [3]: 0%
Eos [3]: 0.8%
Fbg [3]: 304.8 mg/dL
Hb [3]: 13.2 g/dL
Ht [3]: 40.9%
Lym [3]: 76.8%
MCH [3]: 20.8 pg
MCHC [3]: 32.2%
MCV [3]: 64.4 fL
Mono [3]: 3%
Neu [3]: 18.6%
PT [3]: 15.2 s
Plat [3]: 120.8 x10_4/uL
RBC [3]: 634.2 x10_4/ul
Ret [3]: 8.9%
WBC [3]: 73.6 x10_2/uL
KIDNEY_L [3]: 0.9 g
KIDNEY_R [3]: 0.9 g
KIDNEY_TOTAL [3]: 1.7 g
LIVER [3]: 7.7 g
A/G [3]: 0.9
ALP [3]: 1040.2 IU/L
ALT [3]: 32.8 IU/L
AST [3]: 67 IU/L
BUN [3]: 8 mg/dL
CRE [3]: 0.2 mg/dL
Ca [3]: 10.6 mg/dL
Cl [3]: 107.2 meq/L
DBIL [3]: 0.01 mg/dL
GLC [3]: 175.4 mg/dL
IP [3]: 9.9 mg/dL
K [3]: 4 meq/L
LDH [3]: 58 IU/L
Na [3]: 142.8 meq/L
PL [3]: 128.8 mg/dL
RALB [3]: 2.5 g/dL
TBIL [3]: 0.042 mg/dL
TC [3]: 73.6 mg/dL
TG [3]: 39.4 mg/dL
TP [3]: 5.2 g/dL
gamma-GTP [3]: 1 IU/L
TERMINAL_BW [4]: 216.3 g
APTT [4]: 15.1 s
Bas [4]: 0.2%
Eos [4]: 1%
Fbg [4]: 290.8 mg/dL
Hb [4]: 13.5 g/dL
Ht [4]: 41.5%
Lym [4]: 82.2%
MCH [4]: 21.1 pg
MCHC [4]: 32.5%
MCV [4]: 64.7 fL
Mono [4]: 3%
Neu [4]: 12.6%
PT [4]: 14 s
Plat [4]: 123.4 x10_4/uL
RBC [4]: 640.6 x10_4/ul
Ret [4]: 8.3%
WBC [4]: 101.5 x10_2/uL
KIDNEY_L [4]: 0.9 g
KIDNEY_R [4]: 0.9 g
KIDNEY_TOTAL [4]: 1.8 g
LIVER [4]: 10.1 g
A/G [4]: 0.9
ALP [4]: 1515 IU/L
ALT [4]: 39.2 IU/L
AST [4]: 65.8 IU/L
BUN [4]: 13.4 mg/dL
CRE [4]: 0.2 mg/dL
Ca [4]: 11.1 mg/dL
Cl [4]: 105.6 meq/L
DBIL [4]: 0.012 mg/dL
GLC [4]: 172.4 mg/dL
IP [4]: 8.2 mg/dL
K [4]: 4.1 meq/L
LDH [4]: 79.4 IU/L
Na [4]: 144.2 meq/L
PL [4]: 164.8 mg/dL
RALB [4]: 2.6 g/dL
TBIL [4]: 0.028 mg/dL
TC [4]: 86.6 mg/dL
TG [4]: 126 mg/dL
TP [4]: 5.5 g/dL
gamma-GTP [4]: 1.2 IU/L
TERMINAL_BW [5]: 206.7 g
APTT [5]: 16.4 s
Bas [5]: 0%
Eos [5]: 1%
Fbg [5]: 281.4 mg/dL
Hb [5]: 13.2 g/dL
Ht [5]: 40.7%
Lym [5]: 77%
MCH [5]: 20.5 pg
MCHC [5]: 32.3%
MCV [5]: 63.4 fL
Mono [5]: 3.2%
Neu [5]: 18.4%
PT [5]: 15.6 s
Plat [5]: 128.4 x10_4/uL
RBC [5]: 642.8 x10_4/ul
Ret [5]: 9.2%
WBC [5]: 83.2 x10_2/uL
KIDNEY_L [5]: 0.9 g
KIDNEY_R [5]: 0.9 g
KIDNEY_TOTAL [5]: 1.8 g
LIVER [5]: 8.6 g
A/G [5]: 0.9
ALP [5]: 756.4 IU/L
ALT [5]: 41.8 IU/L
AST [5]: 75.6 IU/L
BUN [5]: 9 mg/dL
CRE [5]: 0.2 mg/dL
Ca [5]: 10.7 mg/dL
Cl [5]: 104.6 meq/L
DBIL [5]: 0.01 mg/dL
GLC [5]: 187 mg/dL
IP [5]: 8.3 mg/dL
K [5]: 4.3 meq/L
LDH [5]: 74 IU/L
Na [5]: 141.4 meq/L
PL [5]: 141 mg/dL
RALB [5]: 2.5 g/dL
TBIL [5]: 0.032 mg/dL
TC [5]: 78 mg/dL
TG [5]: 67.2 mg/dL
TP [5]: 5.1 g/dL
gamma-GTP [5]: 1.2 IU/L
TERMINAL_BW [6]: 203.8 g
APTT [6]: 16.5 s
Bas [6]: 0%
Eos [6]: 0.6%
Fbg [6]: 314 mg/dL
Hb [6]: 13.2 g/dL
Ht [6]: 41%
Lym [6]: 71.8%
MCH [6]: 20.8 pg
MCHC [6]: 32.1%
MCV [6]: 64.7 fL
Mono [6]: 4.2%
Neu [6]: 22.2%
PT [6]: 14.8 s
Plat [6]: 126.9 x10_4/uL
RBC [6]: 635.2 x10_4/ul
Ret [6]: 9.5%
WBC [6]: 86.9 x10_2/uL
KIDNEY_L [6]: 0.9 g
KIDNEY_R [6]: 0.9 g
KIDNEY_TOTAL [6]: 1.8 g
LIVER [6]: 8 g
A/G [6]: 1
ALP [6]: 741.6 IU/L
ALT [6]: 35.8 IU/L
AST [6]: 70.8 IU/L
BUN [6]: 8 mg/dL
CRE [6]: 0.2 mg/dL
Ca [6]: 10.6 mg/dL
Cl [6]: 105.4 meq/L
DBIL [6]: 0.004 mg/dL
GLC [6]: 173.6 mg/dL
IP [6]: 9.3 mg/dL
K [6]: 4.2 meq/L
LDH [6]: 80.8 IU/L
Na [6]: 141.4 meq/L
PL [6]: 134.6 mg/dL
RALB [6]: 2.5 g/dL
TBIL [6]: 0.028 mg/dL
TC [6]: 79.8 mg/dL
TG [6]: 31.4 mg/dL
TP [6]: 5.2 g/dL
gamma-GTP [6]: 1 IU/L
TERMINAL_BW [7]: 203.4 g
APTT [7]: 16.5 s
Bas [7]: 0%
Eos [7]: 1%
Fbg [7]: 294.2 mg/dL
Hb [7]: 13 g/dL
Ht [7]: 40.6%
Lym [7]: 73.6%
MCH [7]: 20.2 pg
MCHC [7]: 32.2%
MCV [7]: 62.9 fL
Mono [7]: 3.2%
Neu [7]: 21.6%
PT [7]: 15.4 s
Plat [7]: 116 x10_4/uL
RBC [7]: 645 x10_4/ul
Ret [7]: 9%
WBC [7]: 82.2 x10_2/uL
KIDNEY_L [7]: 1 g
KIDNEY_R [7]: 0.9 g
KIDNEY_TOTAL [7]: 1.9 g
LIVER [7]: 7.6 g
A/G [7]: 1
ALP [7]: 664.8 IU/L
ALT [7]: 31.4 IU/L
AST [7]: 65.4 IU/L
BUN [7]: 7.8 mg/dL
CRE [7]: 0.2 mg/dL
Ca [7]: 10.5 mg/dL
Cl [7]: 107 meq/L
DBIL [7]: 0.01 mg/dL
GLC [7]: 177 mg/dL
IP [7]: 10.2 mg/dL
K [7]: 4.3 meq/L
LDH [7]: 67.4 IU/L
Na [7]: 142.6 meq/L
PL [7]: 127 mg/dL
RALB [7]: 2.5 g/dL
TBIL [7]: 0.036 mg/dL
TC [7]: 73.2 mg/dL
TG [7]: 21.4 mg/dL
TP [7]: 5.1 g/dL
gamma-GTP [7]: 0.8 IU/L
TERMINAL_BW [8]: 215.2 g
APTT [8]: 16.2 s
Bas [8]: 0%
Eos [8]: 1.2%
Fbg [8]: 291 mg/dL
Hb [8]: 13.4 g/dL
Ht [8]: 41.2%
Lym [8]: 75.4%
MCH [8]: 20.8 pg
MCHC [8]: 32.4%
MCV [8]: 64.2 fL
Mono [8]: 3.2%
Neu [8]: 19.8%
PT [8]: 14.2 s
Plat [8]: 116.1 x10_4/uL
RBC [8]: 642.2 x10_4/ul
Ret [8]: 7.1%
WBC [8]: 85.6 x10_2/uL
KIDNEY_L [8]: 0.9 g
KIDNEY_R [8]: 0.9 g
KIDNEY_TOTAL [8]: 1.9 g
LIVER [8]: 9.8 g
A/G [8]: 0.9
ALP [8]: 1271.2 IU/L
ALT [8]: 47.8 IU/L
AST [8]: 68 IU/L
BUN [8]: 14.6 mg/dL
CRE [8]: 0.2 mg/dL
Ca [8]: 11 mg/dL
Cl [8]: 105.2 meq/L
DBIL [8]: 0.012 mg/dL
GLC [8]: 176 mg/dL
IP [8]: 9 mg/dL
K [8]: 4.1 meq/L
LDH [8]: 86.8 IU/L
Na [8]: 143.8 meq/L
PL [8]: 155.6 mg/dL
RALB [8]: 2.6 g/dL
TBIL [8]: 0.028 mg/dL
TC [8]: 85 mg/dL
TG [8]: 85.2 mg/dL
TP [8]: 5.4 g/dL
gamma-GTP [8]: 0.8 IU/L
